Laboratory results as given in ChEMBL document CHEMBL1201862, “PubChem BioAssay data set” (2004).
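Where inhibition never reached the appropriate level, the endpoint shown equals the highest concentration tested. Otherwise, values were interpolated linearly from a five-concentration, 48-hour dose response in 96-well plates. Abbreviation: GI50, concentration required for 50% inhibition of growth.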 The source made the active and inactive calls. Cut-off read from the data, not from the text of the source: active = GI50 up to about 1.1 µM and inactive = higher.

Assays:
Assay in all cases: inhibition of tumour cell growth, NCI panel, 48 h
U-251 = system: U-251
SF-539 = system: SF-539
LOX IMVI = system: LOX IMVI
786-0 = system: 786-0
NCI-H226 = system: NCI-H226
OVCAR-3 = system: OVCAR-3
M14 = system: M14
HL-60 = system: HL-60
DU-145 = system: DU-145
MDA-N = system: MDA-N
OVCAR-5 = system: OVCAR-5
IGROV-1 = system: IGROV-1
NCI-H522 = system: NCI-H522
HCT-116 = system: HCT-116
SK-OV-3 = system: SK-OV-3
UACC-257 = system: UACC-257
Hs-578T = system: Hs-578T
OVCAR-4 = system: OVCAR-4
CAKI-1 = system: CAKI-1
Malme-3M = system: Malme-3M

Measured: GI50

O=c1c(O)c(-c2cc(O)c(O)cc2O)oc2cc(O)c(C3OC(CO)C(O)C(O)C3O)c(O)c12 (stereo not drawn)
inactive: U-251 > 100 µM | SF-539 > 100 µM | LOX IMVI > 100 µM | 786-0 > 100 µM | NCI-H226 > 100 µM | OVCAR-3 > 100 µM | M14 > 100 µM | HL-60 > 100 µM | DU-145 > 100 µM | MDA-N > 100 µM | OVCAR-5 > 100 µM | IGROV-1 > 100 µM | NCI-H522 > 100 µM | HCT-116 > 100 µM | SK-OV-3 > 100 µM | UACC-257 > 100 µM | Hs-578T > 100 µM | OVCAR-4 > 100 µM

COc1ccc(/C=N/NC(=O)O)cc1
inactive: U-251 > 100 µM | SF-539 > 100 µM | CAKI-1 > 100 µM | LOX IMVI > 100 µM | 786-0 > 100 µM | OVCAR-3 > 100 µM | M14 > 100 µM | DU-145 > 100 µM | MDA-N > 100 µM | OVCAR-5 > 100 µM | IGROV-1 > 100 µM | NCI-H522 > 100 µM | HCT-116 > 100 µM | Malme-3M > 100 µM | SK-OV-3 > 100 µM | UACC-257 > 100 µM | Hs-578T > 100 µM | OVCAR-4 > 100 µM

CCOC(=O)C1(Cc2c[nH]c3ccccc23)C(O)CCCN1C(C)=O (stereo not drawn)
inactive: U-251 > 100 µM | SF-539 > 100 µM | CAKI-1 > 100 µM | LOX IMVI > 100 µM | 786-0 > 100 µM | NCI-H226 > 100 µM | OVCAR-3 > 100 µM | M14 > 100 µM | HL-60 > 100 µM | DU-145 > 100 µM | OVCAR-5 > 100 µM | IGROV-1 > 100 µM | HCT-116 > 100 µM | Malme-3M > 100 µM | SK-OV-3 > 100 µM | UACC-257 > 100 µM | Hs-578T > 100 µM | OVCAR-4 > 100 µM

O=C(O)c1ccccc1/C=N\N=C1NCCCCN1
inactive: U-251 > 100 µM | SF-539 > 100 µM | CAKI-1 > 100 µM | LOX IMVI > 100 µM | 786-0 > 100 µM | NCI-H226 > 100 µM | OVCAR-3 > 100 µM | M14 > 100 µM | DU-145 > 100 µM | MDA-N > 100 µM | OVCAR-5 > 100 µM | IGROV-1 > 100 µM | NCI-H522 > 100 µM | HCT-116 > 100 µM | Malme-3M > 100 µM | SK-OV-3 > 100 µM | UACC-257 > 100 µM | Hs-578T > 100 µM | OVCAR-4 > 100 µM

Fc1ccc(Oc2nc3ccccc3nc2-c2ccccc2)cc1
inactive: U-251 50.5 µM | CAKI-1 > 100 µM | LOX IMVI > 100 µM | 786-0 80 µM | NCI-H226 > 100 µM | OVCAR-3 > 100 µM | HL-60 13.9 µM | DU-145 > 100 µM | OVCAR-5 > 100 µM | IGROV-1 > 100 µM | NCI-H522 71.8 µM | HCT-116 > 100 µM | Malme-3M > 100 µM | SK-OV-3 > 100 µM | UACC-257 > 100 µM | Hs-578T 94.4 µM | OVCAR-4 36.5 µM

C[N+]1([O-])[C@H]2CC(OC(=O)[C@H](CO)c3ccccc3)C[C@H]1[C@H]1O[C@H]12 (stereo partly drawn)
inactive: U-251 > 100 µM | SF-539 > 100 µM | CAKI-1 > 100 µM | LOX IMVI > 100 µM | 786-0 > 100 µM | NCI-H226 > 100 µM | OVCAR-3 > 100 µM | M14 > 100 µM | DU-145 > 100 µM | MDA-N > 100 µM | OVCAR-5 > 100 µM | IGROV-1 > 100 µM | NCI-H522 > 100 µM | HCT-116 > 100 µM | Malme-3M > 100 µM | SK-OV-3 > 100 µM | UACC-257 > 100 µM | Hs-578T > 100 µM | OVCAR-4 > 100 µM

COc1ccc(NC(=S)N/N=C\c2ccc(NC(C)=O)cc2)cc1
inactive: U-251 > 100 µM | CAKI-1 > 100 µM | LOX IMVI > 100 µM | 786-0 > 100 µM | OVCAR-3 > 100 µM | M14 > 100 µM | HL-60 41.1 µM | DU-145 > 100 µM | MDA-N > 100 µM | OVCAR-5 > 100 µM | IGROV-1 > 100 µM | NCI-H522 > 100 µM | HCT-116 > 100 µM | Malme-3M > 100 µM | SK-OV-3 > 100 µM | UACC-257 > 100 µM | Hs-578T > 100 µM | OVCAR-4 > 100 µM

Fc1cccc(C2SCC3=Nc4ccccc4CN32)c1 (stereo not drawn)
inactive: U-251 58.2 µM | SF-539 47.5 µM | CAKI-1 > 100 µM | LOX IMVI 40.6 µM | 786-0 37.8 µM | OVCAR-3 20.2 µM | M14 33.3 µM | HL-60 35.1 µM | DU-145 52.4 µM | MDA-N 79.1 µM | OVCAR-5 32.1 µM | HCT-116 27.8 µM | SK-OV-3 39.6 µM | UACC-257 97.9 µM | Hs-578T > 10 µM | OVCAR-4 95.7 µM
